Active and inactive are the calls of the source. For most assays here, no stated cut-off is given here; in the data, actives have a measured IC50 and inactives only a lower limit.

Common to all, as to format: functional
For experiment [1], the target named is T1, Tyrosine-protein phosphatase non-receptor type 22 (Homo sapiens, UniProt Q9Y2R2).
T1 sequence (Q9Y2R2 whole entry): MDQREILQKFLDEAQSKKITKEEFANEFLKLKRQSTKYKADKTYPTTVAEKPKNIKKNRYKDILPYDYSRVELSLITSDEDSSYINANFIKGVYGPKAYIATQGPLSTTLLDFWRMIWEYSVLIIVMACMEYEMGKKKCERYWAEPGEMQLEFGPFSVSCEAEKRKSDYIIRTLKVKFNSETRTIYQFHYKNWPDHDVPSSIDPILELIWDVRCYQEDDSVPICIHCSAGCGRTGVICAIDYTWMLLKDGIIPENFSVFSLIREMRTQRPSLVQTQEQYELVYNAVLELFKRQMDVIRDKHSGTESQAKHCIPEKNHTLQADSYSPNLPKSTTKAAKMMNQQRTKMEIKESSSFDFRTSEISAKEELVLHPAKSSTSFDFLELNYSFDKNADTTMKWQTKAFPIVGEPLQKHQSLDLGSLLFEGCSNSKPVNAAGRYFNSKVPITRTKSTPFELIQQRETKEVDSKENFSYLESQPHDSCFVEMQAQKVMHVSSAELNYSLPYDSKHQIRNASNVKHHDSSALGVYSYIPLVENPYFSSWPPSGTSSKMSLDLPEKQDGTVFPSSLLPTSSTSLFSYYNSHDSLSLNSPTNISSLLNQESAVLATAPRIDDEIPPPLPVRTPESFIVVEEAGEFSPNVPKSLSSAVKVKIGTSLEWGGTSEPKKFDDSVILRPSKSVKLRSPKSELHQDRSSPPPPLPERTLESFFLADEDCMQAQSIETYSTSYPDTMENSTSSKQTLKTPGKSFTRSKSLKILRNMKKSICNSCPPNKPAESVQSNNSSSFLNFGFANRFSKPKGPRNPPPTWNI

Experiment [2] addresses T2, Tyrosine-protein phosphatase non-receptor type 7 (Homo sapiens, UniProt P35236).
T2 sequence (P35236 whole entry): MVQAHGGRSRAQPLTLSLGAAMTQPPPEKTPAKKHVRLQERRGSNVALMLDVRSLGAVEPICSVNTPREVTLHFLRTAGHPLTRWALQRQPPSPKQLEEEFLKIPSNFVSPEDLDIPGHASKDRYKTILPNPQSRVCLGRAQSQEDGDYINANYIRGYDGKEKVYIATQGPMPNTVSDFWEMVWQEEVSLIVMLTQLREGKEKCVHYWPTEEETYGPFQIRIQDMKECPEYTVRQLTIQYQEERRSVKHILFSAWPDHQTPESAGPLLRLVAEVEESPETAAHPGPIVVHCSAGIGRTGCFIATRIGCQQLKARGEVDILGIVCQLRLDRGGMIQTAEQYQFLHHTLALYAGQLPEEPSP

The target in experiment [3] is T1, Tyrosine-protein phosphatase non-receptor type 22. This is another data set of the same source.
In experiment [4] the target is Lysine-specific demethylase 4C (Homo sapiens, UniProt Q9H3R0). As to the kind of experiment: GASC-1 (JMJD2C) histone demethylase inhibitors, dose response, biochemical, DELFIA europium, cherry-picked samples (AID 488835).
The target of experiment [5] is G-protein coupled receptor 55 (Homo sapiens, UniProt Q9Y2T6). As to the kind of experiment: GPR55 antagonists, SAR follow-up, counter-screen for GPR35 antagonist project, imaging, image-based (AID 2397). On the technique in general: A counterscreen serves to expose hits that act by an unwanted route or on another target.
Sequence of G-protein coupled receptor 55 (Q9Y2T6 whole entry): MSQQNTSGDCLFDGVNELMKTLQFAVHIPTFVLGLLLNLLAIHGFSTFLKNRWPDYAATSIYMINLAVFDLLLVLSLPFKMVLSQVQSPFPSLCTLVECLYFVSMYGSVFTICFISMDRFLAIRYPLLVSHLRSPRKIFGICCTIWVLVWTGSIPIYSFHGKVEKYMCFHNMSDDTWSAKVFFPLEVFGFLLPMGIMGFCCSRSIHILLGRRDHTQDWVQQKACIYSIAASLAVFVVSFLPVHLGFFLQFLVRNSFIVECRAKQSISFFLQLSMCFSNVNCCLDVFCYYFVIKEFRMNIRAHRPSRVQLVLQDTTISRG

Sequence of Lysine-specific demethylase 4C (Q9H3R0 whole entry): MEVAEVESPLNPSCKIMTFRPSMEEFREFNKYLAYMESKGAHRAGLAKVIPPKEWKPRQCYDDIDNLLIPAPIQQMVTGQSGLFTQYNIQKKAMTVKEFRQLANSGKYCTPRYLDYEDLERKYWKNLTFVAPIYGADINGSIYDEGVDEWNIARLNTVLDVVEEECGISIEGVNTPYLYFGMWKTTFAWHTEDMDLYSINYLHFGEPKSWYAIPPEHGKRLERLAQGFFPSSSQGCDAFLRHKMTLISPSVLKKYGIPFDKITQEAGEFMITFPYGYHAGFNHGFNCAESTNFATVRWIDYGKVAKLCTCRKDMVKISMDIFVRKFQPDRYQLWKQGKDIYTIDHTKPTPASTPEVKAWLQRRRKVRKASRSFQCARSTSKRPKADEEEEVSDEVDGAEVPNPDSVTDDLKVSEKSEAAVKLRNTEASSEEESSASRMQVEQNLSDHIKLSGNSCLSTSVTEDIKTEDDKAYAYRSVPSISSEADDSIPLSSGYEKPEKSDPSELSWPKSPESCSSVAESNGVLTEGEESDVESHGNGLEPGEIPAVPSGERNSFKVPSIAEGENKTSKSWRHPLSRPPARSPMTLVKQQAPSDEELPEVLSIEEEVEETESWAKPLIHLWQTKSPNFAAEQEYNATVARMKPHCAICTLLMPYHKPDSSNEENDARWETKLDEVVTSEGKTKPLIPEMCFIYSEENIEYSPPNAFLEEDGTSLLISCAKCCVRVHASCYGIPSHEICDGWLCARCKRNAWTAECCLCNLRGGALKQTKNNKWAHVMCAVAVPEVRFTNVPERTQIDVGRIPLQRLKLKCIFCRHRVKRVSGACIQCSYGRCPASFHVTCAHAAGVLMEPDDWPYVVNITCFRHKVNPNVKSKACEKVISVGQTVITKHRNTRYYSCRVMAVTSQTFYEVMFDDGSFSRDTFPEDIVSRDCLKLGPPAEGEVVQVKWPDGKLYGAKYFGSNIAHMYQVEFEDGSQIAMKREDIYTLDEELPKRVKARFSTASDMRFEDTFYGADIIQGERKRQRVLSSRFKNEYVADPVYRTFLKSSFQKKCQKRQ

`Cc1cccc(-n2cc(CN3CCN(C(=O)c4nc[nH]n4)CC3)c(-c3cccc(F)c3)n2)c1`: the IC50 in experiment [1], in experiment [2] and in experiment [3] was > 79.4 µM (inactive) throughout.

Regarding `Nc1c(O)nc(O)nc1C(=O)OCC(=O)Nc1ccc(Cl)cc1[N+](=O)[O-]`, in experiment [4], the AC50 is 8.98 µM (active).

Take `Cc1c(C(=O)Nc2ccc3c(c2)OCCO3)sc2ncnc(O)c12`: in experiment [5], the IC50 was > 32 µM (inactive).

For orientation: IC50 means the point on the concentration scale where inhibition reaches its midpoint. For orientation: AC50 means the concentration giving half of the maximal activity seen.

The values are drawn from ChEMBL document CHEMBL1201862, “PubChem BioAssay data set” (2004).
